Test results reported in patent publication US20020028836A1, “Potassium channel openers” (priority 2000, published 2002).

System: not given
Assay: not given
Conditions: not given

Row | SMILES | melting point [°C]
1 | N#CN=C(Nc1cccnc1)NC(NC(=O)c1ccc(Cl)cc1)C1CCCCC1 (stereo not shown) [Example 61, 4-chloro-N-[{[(cyanoimino)(3-pyridinylamino)methyl]amino}(cyclohexyl)methyl]benzamide] | 190 to 192
2 | CCCC(Cl)(Cl)C(NC(=O)c1ccc(Cl)cc1)NC(=NC#N)Nc1cccnc1 (stereo not shown) [Example 115, 4-chloro-N-(2,2-dichloro-1-{[(cyanoimino)(3-pyridinylamino)methyl]amino}pentyl)benzamide] | 192 to 193
3 | Cc1ccc(C(=O)NC(NC(=S)Nc2ccccc2C)C(F)(F)F)cc1 (stereo not shown) [Example 2, 4-methyl-N-{2,2,2-trifluoro-1-[(2-toluidinocarbothioyl)amino]ethyl}benzamide] | 210 to 211
4 | N#CN=C(Nc1cccnc1)NC(NC(=O)c1cccc(Cl)c1)C(F)(F)C(F)(F)F (stereo not shown) [Example 122, 3-chloro-N-(1-{[(cyanoimino)(3-pyridinylamino)methyl]amino}-2,2,3,3,3-pentafluoropropyl)benzamide] | 183 to 185
5 | CC(C)(C)C(NC(=O)c1ccc(Cl)cc1)NC(=NC#N)NCc1ccccc1Cl (stereo not shown) [Example 77, 4-chloro-N-(1-{[[(2-chlorobenzyl)amino](cyanoimino)methyl]amino}-2,2-dimethylpropyl)benzamide] | 180 to 182
6 | CC(C)(C)C(NC(=O)c1ccc(Cl)cc1)NC(=NS(=O)(=O)c1ccccc1)Nc1cccnc1 (stereo not shown) [Example 139, 4-chloro-N-(2,2-dimethyl-1-{[[(phenylsulfonyl)imino](3-pyridinylamino)methyl]amino}propyl)benzamide] | 196 to 197
7 | CC(C)(C)C(NC(=O)c1ccc(Cl)cc1)NC(=NC#N)NCc1ccncc1 (stereo not shown) [Example 81, 4-chloro-N-[1-({(cyanoimino)[(4-pyridinylmethyl)amino]methyl}amino)-2,2-dimethylpropyl]benzamide] | 189 to 191
8 | CC(Cl)(Cl)C(NC(=O)c1ccc(Cl)cc1)NC(=N[N+](=O)[O-])Nc1cccnc1 (stereo not shown) [Example 137, 4-chloro-N-(2,2-dichloro-1-{[(nitroimino)(3-pyridinylamino)methyl]amino}propyl)benzamide] | 170 to 172
9 | CC(C)(C)C(NC(=O)c1ccc(Cl)cc1)NC(=NC#N)NCc1cccnc1 (stereo not shown) [Example 80, 4-chloro-N-[1-({(cyanoimino)[(3-pyridinylmethyl)amino]methyl}amino)-2,2-dimethylpropyl]benzamide] | 188 to 189
10 | CN(C(=NC#N)Nc1cccnc1)C(NC(=O)c1ccc(Cl)cc1)C(C)(C)C (stereo not shown) [Example 111, 4-chloro-N-{1-[[(cyanoimino)(3-pyridinylamino)methyl](methyl)amino]-2,2-dimethylpropyl}benzamide] | 127 to 129
11 | CC(Cl)(Cl)C(NC(=O)c1cccc(Cl)c1)NC(=N[N+](=O)[O-])Nc1cccnc1 (stereo not shown) [Example 138, 3-chloro-N-(2,2-dichloro-1-{[(nitroimino)(3-pyridinylamino)methyl]amino}propyl)benzamide] | 160 to 161
12 | CC(C)(C)C(NC(=O)c1ccc(Cl)cc1)NC(=NC#N)NCc1ccccn1 (stereo not shown) [Example 82, 4-chloro-N-[1-({(cyanoimino)[(2-pyridinylmethyl)amino]methyl}amino)-2,2-dimethylpropyl]benzamide] | 184 to 185
13 | N#CN=C(Nc1cccnc1)NC(NC(=O)c1ccc(Cl)cc1)C1CC1 (stereo not shown) [Example 54, 4-chloro-N-[{[(cyanoimino)(3-pyridinylamino)methyl]amino}(cyclopropyl)methyl]benzamide] | 137 to 139
14 | CC(C)(C)CC(NC(=O)c1ccc(Cl)cc1)NC(=NS(=O)(=O)c1ccccc1)Nc1cccnc1 (stereo not shown) [Example 140, 4-chloro-N-(3,3-dimethyl-1-{[[(phenylsulfonyl)imino](3-pyridinylamino)methyl]amino}butyl)benzamide] | 199 to 200
15 | CC(C)(C)C(NC(=O)c1ccc(Cl)cc1)NC(=NC#N)Nc1cccc(C(F)(F)F)c1 (stereo not shown) [Example 71, 4-chloro-N-[1-({(cyanoimino)[3-(trifluoromethyl)anilino]methyl}amino)-2,2-dimethylpropyl]benzamide] | 184 to 186
16 | CCCC(Cl)(Cl)C(NC(=O)c1ccc(Cl)cc1)NC(=N[N+](=O)[O-])Nc1cccnc1 (stereo not shown) [Example 136, 4-chloro-N-(2,2-dichloro-1-{[(nitroimino)(3-pyridinylamino)methyl]amino}pentyl)benzamide] | 198 to 200
17 | CC(Cl)(Cl)C(NC(=O)c1ccc(C(F)(F)F)cc1)NC(=NS(=O)(=O)C(F)(F)F)Nc1cccnc1 (stereo not shown) [Example 191, N-{2,2-dichloro-1-[((3-pyridinylamino){[(trifluoromethyl)sulfonyl]imino}methyl)amino]propyl}-4-(trifluoromethyl)benzamide] | 214 to 215
18 | N#CN=C(Nc1cccc(F)c1)NC(NC(=O)c1ccc(Cl)cc1)c1ccsc1 (stereo not shown) [Example 56, 4-chloro-N-[{[(cyanoimino)(3-fluoroanilino)methyl]amino}(3-thienyl)methyl]benzamide] | 166 to 168
19 | CCCC(Cl)(Cl)C(NC(=O)c1ccc(Cl)cc1)NC(=C[N+](=O)[O-])Nc1cccnc1 (stereo not shown) [Example 151, 4-chloro-N-(2,2-dichloro-1-{[2-nitro-1-(3-pyridinylamino)ethenyl]amino}pentyl)benzamide] | 185 to 186
20 | Cc1ccc(C(=O)N[C@@H](COC(C)(C)C)NC(=S)Nc2cccc([N+](=O)[O-])c2)cc1 [Example 31, N-((1R)-2-(tert-butoxy)-1-{[(3-nitroanilino)carbothioyl]amino}ethyl)-4-methylbenzamide] | 169 to 171
21 | CC(C)(C)C(NC(=O)Nc1ccccc1F)NC(=O)c1ccc(Cl)cc1 (stereo not shown) [Example 147, 4-chloro-N-(1-{[(2-fluoroanilino)carbonyl]amino}-2,2-dimethylpropyl)benzamide] | 229 to 230
22 | Cc1ccc(C(=O)NC(NC(=NC#N)Nc2ccc(Cl)nc2)C(C)(C)C)cc1 (stereo not shown) [Example 55, N-(1-{[[(6-chloro-3-pyridinyl)amino](cyanoimino)methyl]amino}-2,2-dimethylpropyl)-4-methylbenzamide] | 194 to 196

The next lines start with the values.

Row | melting point [°C] | SMILES
23 | 125 to 126 | COc1ncccc1NC(=NC#N)NC(NC(=O)c1cc(F)cc(F)c1)C(C)(Cl)Cl (stereo not shown) [Example 157, N-[2,2-dichloro-1-({(cyanoimino)[(2-methoxy-3-pyridinyl)amino]methyl}amino)propyl]-3,5-difluorobenzamide]
24 | 211 to 213 | CC(C)(C)C(NC(=O)c1ccc(Cl)cc1)NC(=NC#N)Nc1c(F)cccc1F (stereo not shown) [Example 74, 4-chloro-N-(1-{[(cyanoimino)(2,6-difluoroanilino)methyl]amino}-2,2-dimethylpropyl)benzamide]
25 | 189 to 190 | COc1ccc(NC(=NC#N)NC(NC(=O)c2cccc(Cl)c2)C(C)(Cl)Cl)cn1 (stereo not shown) [Example 182, 3-chloro-N-[2,2-dichloro-1-({(cyanoimino)[(6-methoxy-3-pyridinyl)amino]methyl}amino)propyl]benzamide]
26 | 185 to 186 | COc1ccccc1NC(=NC#N)NC(NC(=O)c1ccc(Cl)cc1)C(C)(Cl)Cl (stereo not shown) [Example 181, 4-chloro-N-(2,2-dichloro-1-{[(cyanoimino)(2-methoxyanilino)methyl]amino}propyl)benzamide]
27 | 173 to 175 | COc1cccc(NC(=NC#N)NC(NC(=O)c2ccc(Cl)cc2)C(C)(C)C)c1 (stereo not shown) [Example 76, 4-chloro-N-(1-{[(cyanoimino)(3-methoxyanilino)methyl]amino}-2,2-dimethylpropyl)benzamide]
28 | 149 to 150 | COc1ncccc1NC(=NC#N)NC(NC(=O)c1cc(Cl)cc(Cl)c1)C(C)(Cl)Cl (stereo not shown) [Example 164, 3,5-dichloro-N-[2,2-dichloro-1-({(cyanoimino)[(2-methoxy-3-pyridinyl)amino]methyl}amino)propyl]benzamide]
29 | 196 to 198 | CC(C)(C)C(NC(=O)c1ccc(Cl)cc1)NC(=NC#N)Nc1cc(F)cc(F)c1 (stereo not shown) [Example 72, 4-chloro-N-(1-{[(cyanoimino)(3,5-difluoroanilino)methyl]amino}-2,2-dimethylpropyl)benzamide]
30 | 208 to 209 | CC(C)(C)C(NC(=O)c1ccc(Cl)cc1)NC(=NC#N)Nc1ccccc1F (stereo not shown) [Example 69, 4-chloro-N-(1-{[(cyanoimino)(2-fluoroanilino)methyl]amino}-2,2-dimethylpropyl)benzamide]
31 | 158 to 160 | CC(C)(C)C(NC(=O)c1ccc(Cl)cc1)NC(=NC#N)Nc1cccc(Cl)c1 (stereo not shown) [Example 75, 4-chloro-N-(1-{[(cyanoimino)(3-chloroanilino)methyl]amino}-2,2-dimethylpropyl)benzamide]
32 | 193 to 194 | Cc1ccc(C(=O)NC(NC(=NC#N)Nc2cccc(F)c2)C(C)(C)C)cc1 (stereo not shown) [Example 53, N-(1-{[(cyanoimino)(3-fluoroanilino)methyl]amino}-2,2-dimethylpropyl)-4-methylbenzamide]
33 | 208 to 210 | N#CN=C(Nc1cccnc1)NC(NC(=O)c1ccc(I)cc1)C(Cl)(Cl)Cl (stereo not shown) [Example 114, 4-iodo-N-(2,2,2-trichloro-1-{[(cyanoimino)(3-pyridinylamino)methyl]amino}ethyl)benzamide]
34 | 212 to 213 | CC(Cl)(Cl)C(NC(=O)c1cccnc1)NC(=NC#N)Nc1ccc(Cl)nc1 (stereo not shown) [Example 193, N-(2,2-dichloro-1-{[[(6-chloro-3-pyridinyl)amino](cyanoimino)methyl]amino}propyl)nicotinamide]
35 | 187 to 189 | COc1cc(OC)cc(C(=O)NC(NC(=NC#N)Nc2ccc(C(F)(F)F)nc2)C(C)(Cl)Cl)c1 (stereo not shown) [Example 183, N-{2,2-dichloro-1-[((cyanoimino){[6-(trifluoromethyl)-3-pyridinyl]amino}methyl)amino]propyl}-3,5-dimethoxybenzamide]

System: primary cultured guinea-pig urinary bladder (GPB) cells
Assay: Membrane hyperpolarization (MHP) assay, DiBAC(4)3 / FLIPR
Format: cell-based
Conditions: Cavia porcellus, concentration that elicits 50% of the maximal response for the test sample
Summary of the method: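 Primary smooth-muscle cells from male guinea-pig bladder, grown to confluence, loaded 30 min at 37° C with 5 μM DiBAC(4)3 in HEPES buffer pH 7.4. Fluorescence drop on FLIPR followed 25 min after compound; steady-state hyperpolarization normalized to 10 μM P1075 (100%), EC50 from four-parameter fit of five concentrations.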

Row | EC50 [nM] | SMILES
36 | 330 | N#CN=C(Nc1cccnc1)NC(NC(=O)c1ccc(Cl)cc1)C1CCCCC1 (stereo not shown) [Example 61, 4-chloro-N-[{[(cyanoimino)(3-pyridinylamino)methyl]amino}(cyclohexyl)methyl]benzamide]

Same assay, conditions: Cavia porcellus, maximal steady-state hyperpolarization, normalized to response with 10 μM P1075 (100%)

Row | SMILES | Emax [%]
37 | N#CN=C(Nc1cccnc1)NC(NC(=O)c1ccc(Cl)cc1)C1CCCCC1 (stereo not shown) [Example 61, 4-chloro-N-[{[(cyanoimino)(3-pyridinylamino)methyl]amino}(cyclohexyl)methyl]benzamide] | 36
